According to patent publication US10399966B2, “Compounds for treatment of trypanosomes and neurological pathogens and uses thereof” (The University of North Carolina at Chapel Hill, priority 2016, dated 2019):

What was measured:
[1] = Rat pharmacokinetics, oral administration; format: in vivo; parameters: AUC(0-inf): unit not given here; details: 20 mg/kg; for AUC(0-inf) / Cmax / Tmax: rat, in vivo, po
Description: The pharmacokinetics of compound 1 was tested in rats after intravenous and oral administration. Two rats were administered 5 mg/kg compound 1 intravenously in a vehicle consisting of 7% Tween 80, 3% EtOH, 5% DMSO in saline. Two rats were administered 20 mg/kg compound 1 orally in a vehicle consisting of 5% DMSO, 0.5% Tween 80, 1% methylcellulose in water. The results are shown in Table 4 and FIGS. 3A-3B and 4A-4B.

Plasmodium falciparum = experiment: Antimicrobial activity against Plasmodium falciparum; format: cell-based; details: Table 1, Plasmodium falciparum

O=C(Nc1ccc2sc(-c3ccc(F)c(F)c3)nc2c1)N1CC[C@H](F)C1 [Compound 1, (S)-2-(3,4-Difluorophenyl)-5-(3-fluoro-N-pyrrolidylamido)benzothiazole]
Apparent BA ([1]; Mean ± SEM (n = 2)): 116.85% | Apparent BA ([1]; Rat 3): 110.29% | Apparent BA ([1]; Rat 4): 123.40% | AUC(0-inf) ([1]; Mean ± SEM (n = 2)): 6270 | Cmax ([1]; Mean ± SEM (n = 2)): 8.92 µM | Tmax ([1]; Mean ± SEM (n = 2)): 7 h | AUC(0-inf) ([1]; Rat 3): 5770 | Cmax ([1]; Rat 3): 7.31 µM | Tmax ([1]; Rat 3): 8 h | AUC(0-inf) ([1]; Rat 4): 6770 | Cmax ([1]; Rat 4): 10.5 µM | Tmax ([1]; Rat 4): 6 h | EC50 (Plasmodium falciparum): 16.7 µM
